Laboratory results from US10981902B2 (Merck Sharp & Dohme Corp., priority 2017, dated 2021).

Biological target: T1, human M4 muscarinic acetylcholine receptor (Homo sapiens, UniProt P08173)
T1 construct: expressed in transfected cells; host or cells: CHO-K1
T1 sequence (P08173 1-479): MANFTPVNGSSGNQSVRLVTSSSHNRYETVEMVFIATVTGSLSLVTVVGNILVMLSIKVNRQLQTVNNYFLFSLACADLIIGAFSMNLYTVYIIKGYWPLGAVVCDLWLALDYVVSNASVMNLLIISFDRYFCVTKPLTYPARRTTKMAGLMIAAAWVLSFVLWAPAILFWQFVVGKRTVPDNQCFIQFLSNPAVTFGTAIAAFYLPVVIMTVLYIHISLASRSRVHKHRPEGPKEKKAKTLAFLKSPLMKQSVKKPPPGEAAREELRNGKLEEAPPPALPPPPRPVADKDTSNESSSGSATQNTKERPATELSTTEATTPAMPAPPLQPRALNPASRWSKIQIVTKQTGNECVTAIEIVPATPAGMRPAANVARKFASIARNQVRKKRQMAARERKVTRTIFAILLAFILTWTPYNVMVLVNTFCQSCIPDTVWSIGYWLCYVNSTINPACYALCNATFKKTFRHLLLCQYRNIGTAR
Assay: human FLIPR-based M4 PAM assay (calcium mobilization, CHO-K1 cells with human M4 receptor and Gαqi5)
Assay type: cell-based
Conditions: inflection point (IP) of dose response curve, acetylcholine added at 20% of maximum response, read-out: M4 FLIPPR Hu IP
Experimental: In a typical experiment the M4 muscarinic acetylcholine receptor modulating activity of the compounds of the present invention was determined in accordance with the following experimental method. CHO-K1 cells stably transfected with human M4 receptor and chimeric G-protein Gαqi5 (Coward P, et al., Analytical Biochemistry, 270:242-248 (1999)) are thawed from liquid N2 storage, resuspended in growth medium, plated in black, clear bottom 384 well plates, and incubated 16-20 hours at 37° C., 5% CO2. On the day of assay, growth medium is removed, the cells are washed 2 times with wash buffer, and cells are incubated in dye loading buffer at 37° C., 5% CO2 for ˜1 hour. Following dye loading the cell plates are placed in a FLIPR Tetra instrument and while monitoring dye fluorescence (excitation […]), 10 uL of test substance at increasing concentrations is added, and fluorescence values are recorded for 4 min. Next, 10 uL of acetylcholine is added (final concentration calculated so as to achieve 20% of the maximum acetycholine response), and the fluorescence reading is continued for 3.5 min. In some cases, a third addition of acetylcholine (final concentration calculated to achieve 70% of the maximal acetylcholine response) is performed. The resulting dose response curves are fit to a 4 parameter logistic equation and the final result is determined as the inflection point (IP) of the curve
CHO-K1 cells stably transfected with human M4 receptor and chimeric G-protein Gαqi5 are thawed from liquid N2 storage, resuspended in growth medium, plated in black, clear bottom 384 well plates, and incubated 16-20 hours at 37° C., 5% CO2.
On the day of assay, growth medium is removed, the cells are washed 2 times with wash buffer, and cells are incuabted in dye loading buffer at 37° C., 5% CO2 for ˜1 h. Following dye loading the cell plates are placed in a FLIPR Tetra instrument and while monitoring dye fluorescence ([…]), 10 uL of test substance at increasing concentrations is added, and fluorescence values are recorded for 4 min. Next, 10 uL of acetylcholine is added (final concentration calculated so as to achieve 20% of the maximum acetycholine response), and the fluorescence reading is continued for 3.5 min. In some cases, a third addition of acetylcholine (final concentration calculated to achieve 70% of the maximal acetylcholine response) is performed.

Row | EC50 [nM] | SMILES
1 | 45 | Cn1cnc2cc(-c3nc(C(F)F)ccc3-c3cnc(CC4CCCC4)o3)cnc21 [Example 49, 2-(cyclopentylmethyl)-5-(6-(difluoromethyl)-2-(3-methyl-3H-imidazo[4,5-b]pyridin-6-yl)pyridin-3-yl) oxazole]
2 | 96 | Cc1cn2ccc(-c3nc(C#N)ccc3-c3cnc(CCC(F)(F)F)o3)cc2n1 [Example 107, 6-(2-methylimidazo[1,2-a]pyridin-7-yl)-5-(2-(3,3,3-trifluoropropyl)oxazol-5-yl)picolinonitrile]
3 | 45 | CN1Cc2ncc(-c3nc(C#N)ccc3-c3cnc(CC4(F)CCCC4)o3)cc2C1=O [Example 77]
4 | 65 | N#Cc1ccc(-c2cnc(CC3(F)CCC3)o2)c(-c2ccc3cccnc3c2)n1 [Example 73, 5-(2-((1-fluorocyclobutyl)methyl)oxazol-5-yl)-6-(quinolin-7-yl)picolinonitrile]
5 | 46 | CC(CCc1ncc(-c2ccc(C#N)nc2-c2ccn3ccnc3c2)o1)C(F)(F)F (stereo not drawn) [Example 40, 6-(imidazo[1,2-a]-pyridin-7-yl)-5-(2-(4,4,4-trifluoro-3-methylbutyl)oxazol-5-yl)picolinonitrile]
6 | 170 | CC(=O)OC1CCc2cc(-c3cnc(CC4(C)CCCC4)o3)c(-c3ccc4ccc(F)nc4c3)nc21 (stereo not drawn) [Example 5, 2-(2-fluoroquinolin-7-yl)-3-(2-((1-methylcyclopentyl)-methyl)oxazol-5-yl)-6,7-dihydro-5H-cyclopenta[b]pyridin-7-yl acetate]
7 | 60 | Cc1nc2cc(-c3nc(C#N)ccc3-c3cnc(CCC(C)(C)F)o3)ccc2n1C [Example 117, 6-(1,2-dimethyl-1H-benzo[d]imidazol-5-yl)-5-(2-(3-fluoro-3-methylbutyl)oxazol-5-yl) picolinonitrile]
8 | 49 | Cc1nc(CC2CCCC2)oc1-c1ccc(C#N)nc1-c1ccc2cccnc2c1 [Example 64, 5-(2-(cyclopentylmethyl)-4-methyloxazol-5-yl)-6-(quinolin-7-yl)picolinonitrile]
9 | 30 | CN1Cc2ccc(-c3nc4c(cc3-c3cnc(CC5(C)CCCC5)o3)CCC4)cc2C1=O [Example 4, 2-methyl-6-(3-(2-((1-methylcyclopentyl)methyl)oxazol-5-yl)-6,7-dihydro-5H-cyclopenta[b]pyridin-2-yl)isoindolin-1-one]
10 | 42 | N#Cc1ccc(-c2cnc(CC3CCCC3)o2)c(-c2cnc3c(c2)C(=O)N(CC2CC2)C3)n1 [Example 51, 5-(2-(cyclopentylmethyl)oxazol-5-yl)-6-(6-(cyclopropylmethyl)-5-oxo-6,7-dihydro-5H-pyrrolo[3,4-b]pyridin-3-yl) picolinonitrile]
11 | 11 | Cc1ccc(-c2cnc(CC3CCCC3)o2)c(N2CCn3ccnc3C2)n1 [Example 56, 2-(cyclopentylmethyl)-5-(2-(5,6-dihydroimidazo[1,2-a]pyrazin-7(8H)-yl)-6-methylpyridin-3-yl)oxazole]
12 | 118 | Cc1nc2cc(-c3nc(C#N)ccc3-c3cnc(CCC(F)(F)F)o3)ccc2n1C [Example 113, 6-(1,2-dimethyl-1H-benzo[d]imidazol-5-yl)-5-(2-(3,3,3-trifluoropropyl)oxazol-5-yl)picolinonitrile]
13 | 158 | Cc1cn2ccc(-c3nc(C#N)ccc3-c3cnc(CC4(F)CC4)o3)cc2n1 [Example 100, 5-(2-((1-fluorocyclopropyl)methyl)oxazol-5-yl)-6-(2-methyl-imidazo[1,2-a]pyridin-7-yl)picolinonitrile]
14 | 107 | Cc1nc2cc(-c3nc(C#N)ccc3-c3cnc(CC(C)(C)C)o3)ccn2n1 [Example 34, 6-(2-methyl[1,2,4]-triazolo[1,5-a]pyridin-7-yl)-5-(2-neopentyl-oxazol-5-yl)picolino-nitrile]
15 | 108 | CC1(Cc2ncc(-c3ccc(C#N)nc3N3CCn4ccnc4C3)o2)CCCC1 [Example 9, 6-(5,6-dihydro-imidazo[1,2-a]-pyrazin-7(8H)-yl)-5-(2-((1-methyl-cyclopentyl)-methyl)oxazol-5-yl)picolinonitrile]
16 | 54 | N#Cc1ccc(-c2cnc(CC(F)C3CC3)o2)c(-c2ccc3cccnc3c2)n1 (single isomer, unassigned) [Example 71, 5-(2-(2-cyclopropyl-2-fluoroethyl)oxazol-5-yl)-6-(quinolin-7-yl)picolinonitrile (single compound)]
17 | 8 | N#Cc1ccc(-c2cnc(CC3CCCC3)o2)c(N2CCn3ccnc3C2)n1 [Example 55, 5-(2-(cyclopentylmethyl)oxazol-5-yl)-6-(5,6-dihydroimidazo[1,2-a]pyrazin-7(8H)-yl)picolinonitrile]
18 | 182 | Cc1nc2cc(-c3nc(C#N)ccc3-c3cnc(CCC(C)(F)F)o3)ccn2n1 [Example 112, 5-(2-(3,3-difluorobutyl)oxazol-5-yl)-6-(2-methyl-[1,2,4]triazolo [1,5-a]pyridin-7-yl)picolinonitrile]
19 | 137 | COCc1cn2ccc(-c3nc(C#N)ccc3-c3cnc(CC4CC4)o3)cc2n1 [Example 93, 5-(2-(cyclopropylmethyl)oxazol-5-yl)-6-(2-(methoxymethyl)imidazo[1,2-a]pyridin-7-yl)picolinonitrile]
20 | 63 | Cc1cn2ccc(-c3nc(C#N)ccc3-c3cnc(CC(F)C4CC4)o3)cc2n1 (stereo not drawn) [Example 88, 5-(2-(2-cyclopropyl-2-fluoroethyl)oxazol-5-yl)-6-(2-methylimidazo [1,2-a]pyridin-7-yl)picolinonitrile]
21 | 136 | CC(C)(Cc1ncc(-c2ccc(C(F)F)nc2-c2ccc3cccnc3c2)o1)C(F)(F)F [Example 24, 5-(6-(difluoro-methyl)-2-(quinolin-7-yl)pyridin-3-yl)-2-(3,3,3-trifluoro-2,2-dimethylpropyl)-oxazole]
22 | 72 | Cc1cn2ccc(-c3nc(C#N)ccc3-c3cnc(CC(C)(C)C(F)(F)F)o3)cc2n1 [Example 33, 6-(2-methylimidazol-[1,2-a]pyridin-7-yl)-5-(2-(3,3,3-trifluoro-2,2-dimethylpropyl)-oxazol-5-yl)picolino-nitrile]
23 | 61 | CC(C)(C)Cc1ncc(-c2ccc(C#N)nc2-c2ccn3ccnc3c2)o1 [Example 16, 6-(imidazo[1,2-a]-pyridin-7-yl)-5-(2-neopentyloxazol-5-yl)picolinonitrile]
24 | 104 | CC(C)(Cc1ncc(-c2ccc(C#N)nc2-c2ccc3cccnc3c2)o1)C(F)(F)F [Example 23, 6-(quinolin-7-yl)-5-(2-(3,3,3-trifluoro-2,2-dimethylpropyl)-oxazol-5-yl)picolino-nitrile]
25 | 41 | N#Cc1ccc(-c2cnc(CC(F)C3CC3)o2)c(-c2ccc3cccnc3c2)n1 (stereo not drawn) [Example 69, 5-(2-(2-cyclopropyl-2-fluoroethyl)oxazol-5-yl)-6-(quinolin-7-yl)picolinonitrile]
26 | 30 | N#Cc1ccc(-c2cnc(CC(F)C3CC3)o2)c(-c2ccn3ccnc3c2)n1 (stereo not drawn) [Example 84, 5-(2-(2-cyclopropyl-2-fluoroethyl)oxazol-5-yl)-6-(imidazo[1,2-a]pyridin-7-yl) picolinonitrile]
27 | 198 | Cc1nc2cc(-c3ncc(F)cc3-c3cnc(CCC(C)(C)F)o3)ccc2n1C [Example 105, 5-(2-(1,2-dimethyl-1H-benzo[d]imidazol-5-yl)-5-fluoropyridin-3-yl)-2-(3-fluoro-3-methylbutyl)oxazole]
28 | 75 | CC(C)(C)Cc1ncc(-c2ccc3cncn3c2-c2ccn3ccnc3c2)o1 [Example 36, 5-(5-(imidazo[1,2-a]-pyridin-7-yl)imidazo-[1,5-a]pyridin-6-yl)-2-neopentyloxazole]
29 | 136 | N#Cc1ccc(-c2cnc(CCC(F)(F)F)o2)c(-c2ccn3ccnc3c2)n1 [Example 67, 6-(imidazo[1,2-a]pyridin-7-yl)-5-(2-(3,3,3-trifluoropropyl)oxazol-5-yl)picolinonitrile]
30 | 61 | CC(C)Cc1ncc(-c2ccc(C#N)nc2-c2ccc3cccnc3c2)o1 [Example 61, 5-(2-isobutyloxazol-5-yl)-6-(quinolin-7-yl)picolinonitrile]
